In patent US8772237B2, “Compositions and methods for counteracting effects of reactive oxygen species and free radicals” (Ischemix, Inc., priority 1999, dated 2014):
Ends that are not written are not given here.

Columns and labels:
[1] = tested on: transcription factor AP-1; assay: Electrophoretic mobility shift assay (EMSA) for AP-1 activation in primary rat neurons / cortical cultures; type: cell-based
Protocol: Nuclear extracts for electrophoretic mobility shift assays (EMSAs) were prepared as described previously (Adams et al., J. Leukocyte Biol., 62: 865-873 (1997)) using 1.0-2.0×10^7 cells per sample. All buffers were freshly supplemented with dithiothreitol (DTT, 0.5 mM), protease inhibitors: PMSF (0.5 mM), chymostatin, peptstatin-A, aprotinin, antipain, leupeptin (each at 1 μg/ml), and phosphatase inhibitors: NaF (10 mM), ZnCl2 (1 mM), sodium orthovanadate (1 mM), and sodium pyrophosphate (5 mM). Aliquots of the final dialyzates were stored at −80° C. and discarded after use.
AP-1 transcription factor activation was assayed using an electrophoretic mobility shift assay (EMSA), as described by Adams et al., J. Leukoc. Biol., 62:865-873 (1997)). Cultures of primary rat neurons (Cornell-Bell et al., Cell Calcium, 12: 185-204 (1991)) were stimulated for 3 hours with various concentrations (0, 1, 10, 100 ng/ml) of peptide CMX-9236. Nuclear extracts prepared as described above were separated by gel electophoresis on non-denaturing gels and subjected to the EMSA procedure. This EMSA used an AP-1 synthetic duplex probe (Angel, P., 1987, Cell 49:729-739) having the sequence 5′-[…] (SEQ ID NO:33) and its antisense copy (complement strand), which were end-labeled with P^32 using polynucleotide kinase and (γ-P^32)-ATP. For the EMSA reaction, the labeled probe (0.5 pmol) was mixed with 3 μg of nuclear extract protein in a solution containing 10 mM Tris-HCl, pH 7.5, 50 mM NaCl, 1 mM EDTA, 1 mM dithiothreitol, 5% glycerol, 0.02% β-mercaptoethanol, and 1 μg of poly-dI/dC (Pharmacia). Reaction mixtures were incubated at 25° C. for 20 minutes to allow complete complex formation by the duplex with its appropriate AP-1 protein. The mixture was then electrophoresed under non-denaturing conditions through 4% polyacrylamide gels in 0.5×TBE buffer (45 mM Trisma base, 45 mM boric acid, 1 mM EDTA). The gels were dried on 3 mm paper. Bands were visualized by autoradiography at −80° C. with one intensifying screen and quantified by laser densitometry. The upregulation of AP-1 and the activation and upregulation process of AP-1 was compared to control cultures.
Primary cortical cell cultures were grown to confluence and used in in vitro cultures for determining the effects of various representative peptide compounds on upregulation of AP-1. […] Extracts were prepared from the nuclei isolated from the primary culture homogenates, purified, and analyzed for the presence of specific transcription factors using the electrophoretic mobility shift assay (EMSA) method. The binding of ^32P-labeled duplex DNA probes specific for activator protein-1 (AP-1) or nuclear factor κB (NF-κB) was analyzed and quantified by autoradiography. After a 3-hour incubation of the cultures with 1 ng/ml of the peptide CMX-9236 there was a 15-fold increase of AP-1 relative to […] control cultures. […] Thus, a small peptide compound that is less than 20 amino acids long can simulate the properties of large growth factors such as NGF and BDNF, which exist as dimers of protein chains with molecular weights of 13,259 and 13,500, respectively.

[2] = tested on: middle cerebral artery (MCA) permanent occlusion stroke model; assay: Permanent MCA 24-hour occlusion stroke model; type: in vivo, Sprague-Dawley rats
Protocol: The in vivo neuroprotective effects of CMX-9236 were investigated in both temporary and permanent occlusion stroke models in Sprague-Dawley rats using an intraluminal suture of the middle cerebral artery (MCA) occlusion method (Zea Longa et al., Stroke, 20: 84 (1989)). Briefly, a 4-0 silicone-coated suture was inserted through the right common carotid artery to block the MCA orifice. In the temporary model, CMX-9236 (6.2 mg/kg/hr) or vehicle was administered via the femoral vein at 30 minutes after the start of a 2-hour occlusion for a 4-hour continuous infusion; the rats were then reperfused by withdrawing the suture at […] after the MCA occlusion. All experiments were performed in a blinded and randomized manner, and rectal temperature was maintained at 37° C. The animals were sacrificed, and their brains were removed, sectioned into six 2-mm-thick coronal slices and stained with 2,3,5-triphenyltetrazolium chloride solution (Bederson et al., Stroke, 17:1304 (1986)) to visualize the extent of brain damage for the calculation of the corrected hemispheric infarct volumes (Nagasawa and Kogure, Stroke, 20:1037 (1989); Li et al., J. Cereb. Blood Flow Metab., 17:1132 (1997)). […] This represents a significant reduction of infarct size (35±5%, p=0.01, student t-test) for the CMX-9236-treated group in the temporary occlusion model. There was also a 58+11% improvement in the neurological scoring (Minematsu et al., Neurology, 42:235 (1992)) for the peptide-treated group versus controls at the end of 24 hours.
In the permanent occlusion stroke model, the blood flow to the MCA territory was blocked for the total 24-hour period. A continuous i.v. infusion (0.5 ml/hr) of the CMX-9236 peptide (2.04 mg/kg/hr) or vehicle was initiated at 30 minutes after occlusion for 6 hours, followed by a bolus i.v. infusion of CMX-9236 (4.0 mg/kg in 0.5 ml delivered over 10 minutes) or vehicle at 12 hours after occlusion. The corrected infarct volumes were 127.5±18 mm^3 versus 216±18 mm^3 for drug-treated animals and controls, respectively. This represents a significant decrease (41±5%, p=0.003, student t-test) in infarct size for the drug-treated group as compared to the vehicle-treated control group (n=10 per group) in the permanent model, indicating a substantial rescue of brain tissue. These findings indicate that CMX-9236 has neuroprotective properties post-trauma in vivo, reducing the brain damage generated by cerebral ischemia.

[3] = tested on: middle cerebral artery (MCA) permanent occlusion stroke model; assay: Permanent MCA 24-hour occlusion stroke model; type: in vivo, Sprague-Dawley rats; details: Dose 0.05 mg/hr

With “KKDGDGDFAIDAPE [CMX-9236, uncapped peptide]” the “fold-increase of AP-1” value ([1]; 1 ng/ml, 3-hour incubation) was 15 fold, the “fold-increase of AP-1 (binding of DNA duplex probe)” value ([1]; 100 ng/ml, 3 hours) was 60 fold and the corrected infarct volume ([2]; 2.04 mg/kg/hr i.v. for 6 hours from 30 min, plus 4.0 mg/kg bolus at 12 hours, n=10) was 127.5±18 mm^3. For the same sequence, the “decrease in infarct size vs vehicle” value ([2]; 2.04 mg/kg/hr infusion plus 4.0 mg/kg bolus, p=0.003) was 41±5%, the “Percent Neurological Rescue” value [3] was 35 ± 8% and the “Percent Rescue (percent decrease in infarct size vs vehicle controls)” value [3] was 23 ± 7%.
